Measurements as given in patent publication US9573907B2, “2, 4-pyrimidine derivatives and use thereof” (SNU R&DB FOUNDATION, priority 2009, dated 2017).

Assays:
[1] = molecular target: interaction of gp96 and AIMP1 (Mus musculus, UniProt P08113); experiment: ELISA assay of gp96-AIMP1 interaction; type: binding, murine
Description: FIGS. 1 to 9 represent suppression of cell surface gp96 by GPM1 reduces DC maturation and B220^+ population in gp96tm transgenic mice. (FIG. 1) Chemical structure of GPM1 (Formula 2) and negative control (NC1, Formula 16) used in this study. (FIG. 2) The dose-dependent effect of GPM1 or NC1 on the AIMP1-gp96 interaction using ELISA method as described. The indicated concentrations of the two compounds and biotin-conjugated murine gp96 were added to AIMP1 coated on the surface of microtiter wells, and gp96 bound to AIMP1 was detected with strepavidin-conjugated peroxidase. (FIG. 3) The binding of GPM1 to gp96 was examined by surface plasmon resonance (SPR). GPM1 at the indicated concentrations was injected to immobilized gp96 and the binding was measured using Biacore 3000. The response data were processed using data from a reference surface and buffer injections. Each concentration was tested in triplicate. (FIG. 4) RAW24.7 cells were treated with 10 μM GPM1 for 24 h. Cell lysates were immunoprecipitated with control IgG or anti-gp96 antibody and the immunoprecipitated proteins were immunoblotted with anti-KDELR1, antiAIMP1 and gp96 antibodies. WCL means whole cell lysate. (FIG. 5) Splenocytes isolated from C57BL/6 mice were treated with vehicle (5% DMSO in PBS), GPM1, or NC1 (10 μM, 24 h), stained for cell surface gp96, and followed by flow cytometry. (FIG. 6) AIMP1^+/+ or AIMP1^−/− mouse splenocytes (2×10^5 cells) were treated with vehicle, GPM1, or NC1 (10 μM, 24 h), fixed, and then co-cultured with WT bone marrow-derived DCs (1×10^4 cells) for 16 h. TNFα secreted from BMDCs was quantified by ELISA. (FIG. 7) Percentage of gp96^+ MHC class II^+ cell population in splenocytes from gp96tm transgenic female mice treated with vehicle (control) (n=9), GPM1 (n=9), and dexamethasone (n=7) at 30 mg/kg. (FIG. 8) Cell surface ICOSL of CD11b^+CD11c^+ (myeloid DCs), CD11b^−CD11c^+ (lymphoid DCs), and CD11b^+CD11c^− (macrophages) cell populations in splenocytes from gp96tm transgenic female mice treated with vehicle (n=9) and GPM1 (n=9) at 30 mg/kg. (FIG. 9) Percentage of B220^+, MHC class II^+, CD4^+, CD8^+, CD4 and CD8 double negative cell populations in splenocytes from gp96tm transgenic female mice treated with vehicle (n=9), GPM1 (n=9), and dexamethasone (n=7) at 30 mg/kg. Student t-test P values comparing GPM1-treated mice with control are indicated.
96-well plates (Maxisorp., F96; Nunc) were coated with 500 ng/well AIMP1 in PBS (pH 7.4). After washing, the remaining sites were blocked with PBS containing 1% BSA for 1 h. Binding of 10 ng/well biotin-conjugated gp96 was performed in Tris buffer (25 mM Tris, 10 mM NaCl and 0.4% Triton X-100). Each of the 6,580 compounds was added to the well at 100 nM and the plates were washed and incubated with HRP conjugated streptavidin in PBS containing 0.1% BSA and 0.1% Tween 20 for 30 min. The plates were washed, and then substrate was added to each well. The absorbance was monitored at 450 nm.
To identify chemicals that can affect membrane translocation of gp96, the present inventors employed the interaction of gp96 with AIMP1 as the screening target. For this screening, the present inventors chose 6,482 chemicals with different pharmacophore representing 150,000 different chemicals deposited in Korea Chemical Bank and identified the compounds that can inhibit the interaction of the two proteins. For the screening, the present inventors set up a modified ELISA method using recombinant AIMP1 and gp96 proteins as described in Experimental methods. Each of the tested compounds gave different effect on the interaction of the two proteins (FIG. 19). And the present inventors have selected 12 compounds that inhibited the interaction more than 95% of the control at 0.1 μM (Table 1). The present inventors obtained 1251 additional compounds derived from these 12 initial hits and tested them again for their activities against the gp96-AIMP1 interaction.

bone marrow-derived DCs = experiment: DC maturation assay (secreted TNFα); type: cell-based, mice; conditions: AIMP1−/− splenocytes pretreated 10 μM, 24 h; compared to NC1
Description: FIGS. 1 to 9 represent suppression of cell surface gp96 by GPM1 reduces DC maturation and B220^+ population in gp96tm transgenic mice. (FIG. 1) Chemical structure of GPM1 (Formula 2) and negative control (NC1, Formula 16) used in this study. (FIG. 2) The dose-dependent effect of GPM1 or NC1 on the AIMP1-gp96 interaction using ELISA method as described. The indicated concentrations of the two compounds and biotin-conjugated murine gp96 were added to AIMP1 coated on the surface of microtiter wells, and gp96 bound to AIMP1 was detected with strepavidin-conjugated peroxidase. (FIG. 3) The binding of GPM1 to gp96 was examined by surface plasmon resonance (SPR). GPM1 at the indicated concentrations was injected to immobilized gp96 and the binding was measured using Biacore 3000. The response data were processed using data from a reference surface and buffer injections. Each concentration was tested in triplicate. (FIG. 4) RAW24.7 cells were treated with 10 μM GPM1 for 24 h. Cell lysates were immunoprecipitated with control IgG or anti-gp96 antibody and the immunoprecipitated proteins were immunoblotted with anti-KDELR1, antiAIMP1 and gp96 antibodies. WCL means whole cell lysate. […] TNFα secreted from BMDCs was quantified by ELISA. […]

AIMP1 = molecular target: T1, AIMP1 (Homo sapiens, UniProt Q12904); experiment: Surface plasmon resonance, binding to AIMP1; conditions: SPR, BIAcore 3000
T1 sequence (Q12904 1-312): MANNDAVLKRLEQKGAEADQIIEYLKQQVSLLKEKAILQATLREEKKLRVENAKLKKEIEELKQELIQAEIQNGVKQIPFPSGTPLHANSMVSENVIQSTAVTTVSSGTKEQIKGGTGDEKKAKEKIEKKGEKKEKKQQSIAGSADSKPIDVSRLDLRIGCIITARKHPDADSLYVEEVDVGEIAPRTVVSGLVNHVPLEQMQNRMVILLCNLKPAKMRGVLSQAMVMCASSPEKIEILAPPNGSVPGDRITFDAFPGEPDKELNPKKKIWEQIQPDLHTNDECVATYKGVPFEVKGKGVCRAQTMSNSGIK
Excerpt: The present inventors compared the dose-dependent effect of GPM1 and NC1 on the interaction of gp96 and AIMP1 using ELISA. […] The present inventors monitored the binding kinetics of GPM1 to gp96 or AIMP1 by surface plasmon resonance (SPR) using BIAcore 3000. […] To further define the GPM1 binding region of gp96 (Han, J. M., Park, S. G., Liu, B., Park, B. J., Kim, J. Y., Jin, C. H., Song, Y. W., Li, Z. & Kim, S. Am. J. Pathol. 170, 2042-2054 (2007)), the present inventors introduced point mutations at L707, V706, V712, L713, F714, Y731 and M738 that are located within AIMP1 binding region of gp96 and monitored how the mutations at these sites would affect the binding of GPM1 to gp96 using SPR method.

interaction of gp96 and AIMP1, sequence (P08113 22-802): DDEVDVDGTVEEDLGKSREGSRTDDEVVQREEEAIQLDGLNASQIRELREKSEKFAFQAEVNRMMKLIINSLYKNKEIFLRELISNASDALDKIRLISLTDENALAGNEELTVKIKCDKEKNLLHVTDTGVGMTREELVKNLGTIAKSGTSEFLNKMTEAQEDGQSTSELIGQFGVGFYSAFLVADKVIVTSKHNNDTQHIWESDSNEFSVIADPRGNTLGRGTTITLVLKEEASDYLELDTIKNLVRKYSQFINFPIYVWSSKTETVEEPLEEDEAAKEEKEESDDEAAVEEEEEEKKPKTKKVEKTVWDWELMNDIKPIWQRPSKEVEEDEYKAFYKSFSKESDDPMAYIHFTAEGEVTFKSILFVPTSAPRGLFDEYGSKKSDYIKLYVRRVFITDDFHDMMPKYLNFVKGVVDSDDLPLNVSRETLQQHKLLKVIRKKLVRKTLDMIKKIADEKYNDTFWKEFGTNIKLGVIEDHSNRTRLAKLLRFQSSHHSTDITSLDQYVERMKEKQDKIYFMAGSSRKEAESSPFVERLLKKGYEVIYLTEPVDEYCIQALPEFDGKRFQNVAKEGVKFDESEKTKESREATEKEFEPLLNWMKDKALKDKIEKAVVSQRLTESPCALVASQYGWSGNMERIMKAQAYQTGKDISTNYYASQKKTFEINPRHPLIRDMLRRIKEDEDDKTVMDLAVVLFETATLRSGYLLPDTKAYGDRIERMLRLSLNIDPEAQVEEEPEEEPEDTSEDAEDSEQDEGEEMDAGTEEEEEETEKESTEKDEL

For `COC(=O)[C@@H](Oc1nc(OC)cc(OC)n1)C(C)C` [GPM1, (S)-methyl 2-(4,6-dimethoxypyrimidin-2-yloxy)-3-methylbutanoate], the IC50 ([1]; dose-dependent effect, ELISA, read-out: 50% inhibition of the interaction of gp96 and AIMP1) was ~30 nM, the inhibition at 0.1 µM ([1]; read-out: Inhibition rate (at 100 nM; %)) was 95% and the “amount of secreted TNF-α” value (bone marrow-derived DCs) was “significantly reduced”. The “binding to AIMP1” value (AIMP1) was “no apparent binding”.
